The results in this text go back to ChEMBL document CHEMBL1152215, “6-[2-(4-Aryl-1-piperazinyl)ethyl]-2H-1,4-benzoxazin-3(4H)-ones: dual-acting 5-HT1 receptor antagonists and serotonin reuptake inhibitors” (Bioorg Med Chem Lett, 2008).

For data set [1], the target named is T1, 5-hydroxytryptamine receptor 1B (Homo sapiens, UniProt P28222). The experiment in a line: Displacement of [3H]5HT from human 5HT1B receptor expressed in CHO cells. The format is cell-based. A general note: Displacement assays read how much labelled ligand stays bound in the presence of the test substance.
Data set [2] has as its target Sodium-dependent serotonin transporter (Homo sapiens, UniProt P31645). Kind of data set: Displacement of [3H]citalopram from human SerT expressed pig LLCPK cells. The format is cell-based.
In data set [3] the target is T2, 5-hydroxytryptamine receptor 1A (Homo sapiens) (UniProt P08908).
T2 sequence (whole entry): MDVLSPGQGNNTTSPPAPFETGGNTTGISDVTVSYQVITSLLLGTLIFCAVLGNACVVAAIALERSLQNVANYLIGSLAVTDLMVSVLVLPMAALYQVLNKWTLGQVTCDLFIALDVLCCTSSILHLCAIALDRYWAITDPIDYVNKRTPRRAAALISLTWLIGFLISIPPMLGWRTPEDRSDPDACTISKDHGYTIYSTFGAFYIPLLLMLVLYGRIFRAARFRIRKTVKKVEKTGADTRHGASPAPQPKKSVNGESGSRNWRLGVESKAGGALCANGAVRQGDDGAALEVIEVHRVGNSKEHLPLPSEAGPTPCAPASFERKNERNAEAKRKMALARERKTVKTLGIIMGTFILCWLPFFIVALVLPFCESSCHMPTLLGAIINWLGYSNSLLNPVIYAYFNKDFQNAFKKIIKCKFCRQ
Kind of data set: Intrinsic activity at human 5HT1A receptor expressed in CHO cells by [S35]GTPgammaS binding assay relative to serotonin. The format is functional, cell-based. (In general: Binding of GTPγS marks nucleotide exchange on a G protein.)

Data set [4] addresses T3, 5-hydroxytryptamine receptor 1D (Homo sapiens, UniProt P28221). Kind of data set: Displacement of [3H]5HT from human 5HT1D receptor expressed in CHO cells. The format is cell-based.
The target in data set [5] is T3, 5-hydroxytryptamine receptor 1D. Kind of data set: Intrinsic activity at human 5HT1D receptor expressed in CHO cells by [S35]GTPgammaS binding assay relative to serotonin. The format is functional, cell-based.
Data set [6] concerns the target T1, 5-hydroxytryptamine receptor 1B. Kind of data set: Intrinsic activity at human 5HT1B receptor expressed in CHO cells by [S35]GTPgammaS binding assay relative to serotonin. The format is functional, cell-based.
Data set [7] addresses T4, 5-hydroxytryptamine receptor 1A (Homo sapiens, UniProt P08908).
T4 sequence (P08908 whole entry): T2 sequence (whole entry)
Kind of data set: Displacement of [3H]WAY-100635 from human 5HT1A receptor expressed in CHO cells. The format is cell-based.

Data set [8] can be described thus: Oral bioavailability in rat at 1 mg/kg. The format is ADME, organism-based. The settings on record: in vivo.
Data set [9] can be described thus: Volume of distribution in rat. The format is ADME, organism-based. Conditions: in vivo, read-out: Vdss.
Data set [10] is described as follows: Half life in rat. The format is ADME, organism-based. The settings on record: in vivo.
Data set [11] in a line: Ratio of drug level in brain to blood in rat. The format is ADME, organism-based. Conditions: brain / whole blood.
A short description of data set [12]: Blood Clearance in rat at 0.5 mg/kg, iv and 1 mg/kg, po. The format is ADME, organism-based. The settings on record: whole blood.
Data set [13] has as its system Liver microsomes. Kind of data set: Metabolic stability in human liver microsomes assessed as intrinsic clearance. The format is ADME, Microsome. A general note: Microsomes from liver hold many membrane-bound enzymes, among them those of drug oxidation.
In data set [14] the test system is Liver microsomes. The experiment in a line: Metabolic stability in rat liver microsomes assessed as intrinsic clearance. The format is ADME, Microsome.

Sequence of Sodium-dependent serotonin transporter (P31645 whole entry): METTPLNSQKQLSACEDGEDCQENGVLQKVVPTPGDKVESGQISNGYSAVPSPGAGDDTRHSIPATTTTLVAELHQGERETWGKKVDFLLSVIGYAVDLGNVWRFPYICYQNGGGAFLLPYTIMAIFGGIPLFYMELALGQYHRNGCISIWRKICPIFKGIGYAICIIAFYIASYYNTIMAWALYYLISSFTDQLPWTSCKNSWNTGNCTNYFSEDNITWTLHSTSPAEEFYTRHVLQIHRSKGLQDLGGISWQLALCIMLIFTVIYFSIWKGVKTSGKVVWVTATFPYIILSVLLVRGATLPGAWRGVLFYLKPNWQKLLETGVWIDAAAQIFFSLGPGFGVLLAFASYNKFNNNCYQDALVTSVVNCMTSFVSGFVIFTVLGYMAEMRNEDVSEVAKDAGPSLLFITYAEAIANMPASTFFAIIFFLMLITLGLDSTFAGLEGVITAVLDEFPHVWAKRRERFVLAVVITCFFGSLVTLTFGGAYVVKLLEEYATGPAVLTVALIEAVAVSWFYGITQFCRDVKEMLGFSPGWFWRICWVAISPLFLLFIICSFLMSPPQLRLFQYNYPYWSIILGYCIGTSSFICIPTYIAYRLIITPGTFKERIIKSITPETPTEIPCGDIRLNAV
T3 sequence (P28221 whole entry): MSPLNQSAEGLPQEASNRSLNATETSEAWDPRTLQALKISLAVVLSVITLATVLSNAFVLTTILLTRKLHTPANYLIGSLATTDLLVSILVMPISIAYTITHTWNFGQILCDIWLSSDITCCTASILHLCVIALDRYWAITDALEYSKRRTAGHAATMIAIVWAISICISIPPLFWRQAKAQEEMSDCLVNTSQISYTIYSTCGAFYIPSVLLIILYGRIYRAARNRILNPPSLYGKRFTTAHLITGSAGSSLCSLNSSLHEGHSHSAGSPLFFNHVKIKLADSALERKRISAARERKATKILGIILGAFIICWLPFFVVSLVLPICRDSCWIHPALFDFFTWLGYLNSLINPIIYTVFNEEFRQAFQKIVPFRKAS
T1 sequence (P28222 whole entry): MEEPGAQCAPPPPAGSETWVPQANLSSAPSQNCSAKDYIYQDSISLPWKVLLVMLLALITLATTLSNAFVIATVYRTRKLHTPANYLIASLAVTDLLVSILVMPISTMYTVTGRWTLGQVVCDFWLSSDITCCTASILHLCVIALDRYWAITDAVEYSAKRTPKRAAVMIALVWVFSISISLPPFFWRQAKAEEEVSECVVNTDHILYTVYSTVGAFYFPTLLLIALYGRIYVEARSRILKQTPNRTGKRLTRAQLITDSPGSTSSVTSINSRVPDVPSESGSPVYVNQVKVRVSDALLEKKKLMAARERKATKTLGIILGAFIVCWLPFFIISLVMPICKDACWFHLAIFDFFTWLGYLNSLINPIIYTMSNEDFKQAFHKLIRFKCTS

With `Cc1cc(N2CCN(CCc3ccc4c(c3)NC(=O)CO4)CC2)c2ccc(C)nc2c1`, the Ki (commonly a dissociation constant, usually derived from enzyme kinetics or from competition with a known ligand) is 0.631 nM in data set [1], 15.8 nM in data set [2], 0.398 nM in [4] and 0.126 nM in data set [7]. Besides, the Intrinsic activity is 1.2 in data set [3], 0.3 in data set [5] and 0.3 in data set [6].
For `O=C1COc2ccc(CCN3CCN(c4nccc5ccccc45)CC3)cc2N1`, the inhibitory constant (Ki) was 0.794 nM in data set [1], 0.794 nM in data set [2], 0.251 nM in data set [4] and 100 nM in data set [7]. Besides, the Intrinsic activity in [3] came to 1; in data set [5], 0.4; in data set [6] it was 0.5.
As to `Cc1ccc2c(N3CCN(CCc4ccc5c(c4)NC(=O)CO5)[C@H](C)C3)cccc2n1`, the inhibition constant (Ki) is 7.94 nM in data set [1], 0.794 nM in data set [2], 0.501 nM in [4] and 1.58 nM in [7]. For the same compound, the Intrinsic activity in data set [3], in data set [5] and in data set [6] was 0 in each case.
As to `O=C1COc2ccc(CCN3CCN(c4cccc5nc(-c6ccccc6)ccc45)CC3)cc2N1`, the inhibition constant (Ki) in [1] was 0.316 nM; in [2] it was 0.158 nM; in data set [4], 12.6 nM; in data set [7], 0.631 nM. In addition, the Intrinsic activity came to 0.4 in [3], 0 in [5] and 0.2 in [6].
For the compound `Cc1cc2c(N3CCN(CCc4ccc5c(c4)NC(=O)CO5)CC3)cccc2[nH]1`, the inhibition constant Ki in data set [1] is 0.398 nM; in data set [2], 6.31 nM; in data set [4] it was 0.2 nM; in data set [7], 3.16 nM. Besides, the values for the Intrinsic activity in data set [3], in data set [5] and in data set [6] were 0.3, 0.4 and 0.4, respectively.
For `Cc1ncc2c(N3CCN(CCc4ccc5c(c4)NC(=O)CO5)CC3)cccc2n1`, the Ki in data set [1] was 0.631 nM; in data set [2], 2 nM; in [4] it was 0.316 nM; in [7], 0.398 nM. Further, the bioavailability (in general, the share of a dose that reaches the circulation, judged against a reference dose that is usually intravenous) in [8] worked out at 67%. The Vd in data set [9] came to 1.1 L/kg. Further, the half-life – broadly, the time needed for the level to fall by half in the phase considered – in data set [10] was 2.8 h. In addition, the Intrinsic activity in data set [3] worked out at 0.6; in data set [5] it was 0; in data set [6] it was 0.2. In addition, the Kp (in general, the ratio of the level in a tissue or fluid to that in plasma or blood) in data set [11] turned out to be 0.3. In [12], this compound displayed a clearance of 4 mL/min/kg.
In the case of `CCN1C(=O)COc2ccc(CCN3CCN(c4cccc5nc(C)ccc45)CC3)cc21`, the Ki was 0.794 nM in [1], 79.4 nM in [2], 0.398 nM in data set [4] and 0.501 nM in data set [7]. Also, the Intrinsic activity in data set [3], in data set [5] and in data set [6] was 0 each time.
As for `Cc1ccc2c(N3C[C@H]4C[C@@H]3CN4CCc3ccc4c(c3)NC(=O)CO4)cccc2n1`, the Ki in [1] was 0.794 nM; in data set [2], 3.98 nM; in [4], 25.1 nM; in data set [7], 126 nM. Also, the Intrinsic activity in [3] worked out at 0.8; in [5], 0; in data set [6] it was 0.2.
Consider `Cc1ccc2c(N3CCN(CCc4ccc5c(c4F)NC(=O)CO5)CC3)cccc2n1`, for which the Ki in data set [1] is 0.398 nM; in data set [2], 5.01 nM; in data set [4], 0.398 nM; in data set [7], 0.251 nM. Further, the Intrinsic activity in data set [3] was 0.3; in data set [5], 0; in data set [6] it was 0.2.
With `O=C1COc2ccc(CCN3CCN(c4cccc5cccnc45)CC3)cc2N1`, the Ki is 31.6 nM in data set [1], 10 nM in data set [2], 0.251 nM in [4] and 1.58 nM in data set [7]. Also, the Intrinsic activity in data set [3] turned out to be 0.8; in data set [5], 0.7; in data set [6], 0.7.
As for `Cc1ccc2c(N3CCN(CCc4ccc5c(c4)NC(=O)CO5)CC3)ccc(F)c2n1`, the Ki was 126 nM in data set [1], 3.98 nM in data set [2], 0.316 nM in data set [4] and 0.251 nM in data set [7]. Moreover, the Intrinsic activity in data set [3] worked out at 0.2; in data set [5], 0; in [6] it was 0.
As to `Cc1ccc2c(N3CCN(CCc4ccc5c(c4)NC(=O)CO5)CC3)cc(Cl)cc2n1`, the Ki in [1] was 0.501 nM; in data set [2] it was 0.794 nM; in data set [4], 0.158 nM; in data set [7] it was 0.316 nM. Moreover, the Intrinsic activity in [3] was 0.4; in [5], 0; in [6], 0.
Consider `Cc1ccc2c(N3CCN(CCc4cc5c(cc4F)OCC(=O)N5)CC3)cccc2n1`, for which the inhibitory constant (Ki) in data set [1] is 1.58 nM; in data set [2], 0.794 nM; in data set [4] it was 0.251 nM; in data set [7], 0.251 nM. The Intrinsic activity is 0.2 in data set [3], 0 in [5] and 0.1 in data set [6].
`Cc1ccc2c(N3CCN(CCc4ccc5c(c4)NC(=O)CO5)CC3)cccc2n1`: the bioavailability in data set [8] stood at 68%. In addition, the Vd in data set [9] is 2 L/kg. Besides, the CL in the data set on Liver microsomes [13] was under 0.5 mL/min/g; in the data set on Liver microsomes [14], 1.3 mL/min/g. This compound gave a half-life in data set [10] of 5.1 h. Moreover, the Intrinsic activity in data set [3] amounted to 0.2; in data set [6], 0.1. Further, the clearance in data set [12] is 5 mL/min/kg.
With `Cc1ccc2c(N3CCN(CCc4ccc5c(c4)NC(=O)CO5)CC3)ccc(Cl)c2n1`, the Ki in [1] is 0.501 nM; in [2] it was 1.58 nM; in data set [4], 0.2 nM; in data set [7], 3.98 nM. For the same compound, the Intrinsic activity was 0.7 in data set [3], 0 in data set [5] and 0.3 in data set [6].
As to `Cc1ccc2c(N3CCN(CCc4cc(F)c5c(c4)NC(=O)CO5)CC3)cccc2n1`, the Ki in [1] was 1 nM; in data set [2], 1.26 nM; in [4], 0.2 nM; in [7], 1.26 nM. For the same compound, the results for the Intrinsic activity in [3], in data set [5] and in [6] were 0, 0 and 0.3, respectively.
On to `Cc1ccc2c(N3CCN(CCc4ccc5c(c4)NC(=O)CO5)[C@@H](C)C3)cccc2n1`, for which the Ki was 1.26 nM in data set [1], 0.398 nM in data set [2], 1.58 nM in [4] and 3.16 nM in [7]. Besides, the Intrinsic activity in data set [3], in data set [5] and in data set [6] was 0 throughout.
Take `Cc1ccc2c(N3CCN(CCc4ccc5c(c4)NC(=O)CO5)CC3)cc(F)cc2n1`: the Ki in [1] was 2.51 nM; in data set [2] it was 0.794 nM; in data set [4], 0.2 nM; in [7], 2.51 nM. Also, the Intrinsic activity in data set [3], in [5] and in data set [6] was 0 throughout.
Take `CC1(C)Cc2cccc(N3CCN(CCc4ccc5c(c4)NC(=O)CO5)CC3)c2O1`: the Ki in [1] is 0.631 nM; in data set [2] it was 2.51 nM; in data set [4], 0.158 nM; in [7], 0.501 nM. The Intrinsic activity in data set [3] was found to be 1.2; in data set [5], 0.5; in [6], 0.6.
Turning to `Cc1ccc2c(N3CCN(CCc4ccc5c(c4)NC(=O)CO5)CC3C)cccc2n1` (centres undefined), the Ki in [1] is 2 nM; in data set [2], 10 nM; in data set [4], 0.316 nM; in data set [7], 0.794 nM. The Intrinsic activity in data set [3] turned out to be 0.2; in data set [5], 0; in data set [6], 0.1.
In data set [8], `Cc1ccc2c(N3CCN(CCc4ccc5c(c4)N(C)C(=O)CO5)CC3)cccc2n1` displayed a bioavailability of 59%. The Vd in data set [9] is 2.7 L/kg. Further, the CL with Liver microsomes [13] was found to be 1.1 mL/min/g; in the data set on Liver microsomes [14], 0.8 mL/min/g. The half-life in data set [10] was 4.4 h. Besides, the figures for the Intrinsic activity in [3] and in data set [6] were 0.3 and 0.2, respectively. This compound came in with a clearance in data set [12] of 8 mL/min/kg.
